Data taken from US20130040331A1, “LABEL-FREE METHODS RELATED TO hERG POTASSIUM ION [sequence]” (CORNING INCORPORATED, priority 2009, published 2013).
“Also recorded” adds a separate entry of the source. Where two headings read alike, the source gives them in different places.

What was measured:
[1] = test system: mallotoxin DMR signal in HT29 cells; assay: DMR modulation index against the mallotoxin DMR signal in HT29 cells; type: cell-based, human
Description: (§1) A “molecule modulation index” or like terms is an index to display the ability of the molecule to modulate the biosensor output signals of the panels of markers acting on the panel of cells. The modulation index is generated by normalizing a specific biosensor output signal parameter of a response of a cell upon stimulation with a marker in the presence of a molecule against that in the absence of any molecule.
(§2) Epic® wavelength interrogation system (Corning Inc., Corning, N.Y.) was used for whole cell sensing. This system consists of a temperature-control unit, an optical detection unit, and an on-board liquid handling unit with robotics. The detection unit is centered on integrated fiber optics, and enables kinetic measures of cellular responses with a time interval of ˜15 sec.
(§3) Cells were plated in 384-well Epic® cell culture treated plate (Corning Cat#5040) 16-20 hours before assay (15000 cells/well for HEK293 and HEK-hERG cells, 30000 cells/well for HT29 cells). For both HEK-hERG and its parental HEK293 cells, each well was coated with 10 μl 5 μg/ml fibronectin. One hour before assay, cells were washed twice on a BioTek ELx405 Select washer with Hank's Balanced Salt Solution (HBSS) containing 20 mM Hepes. Cells were incubated in 40 μl/well HBSS at 28° C. inside the Epic system for one hour. For each assay, a 2-min baseline was initiated, followed by addition of 10 μl compound solutions (5×) and the cell responses were recorded continuously for one hour.
(§4) All studies were carried out at a controlled temperature (28° C.). At least two independent sets of experiments, each with at least three replicates, were performed. […] All dose-dependent responses were analyzed using non-linear regression method with the GraphPad Prism 5.
(§5) The DMR modulation index was generated by normalizing the mallotoxin DMR signal in either cell line in the presence of compound […] to its corresponding DMR signal in the absence of the compound, and the percentage of modulation was based on the amplitude of the mallotoxin DMR signal at a specific time (−18 min after stimulation for HEK-hERG cells, and ˜50 min after stimulation for HT29 cells, respectively). Mallotoxin is known to display polypharmacology. It is also known to be a protein kinase C (PKC) inhibitor; and PKC is a downstream signaling component of hERG activation. Thus, it would be difficult or almost impossible to assign the mode(s) of action of mallotoxin to be a hERG activator when either cell line is individually assayed with the label-free biosensor (i.e., Epic® system). […] However, combining the primary DMR profiles of a compound across the three cell lines tested with the modulation index of the compound against the mallotoxin responses in both HT29 and […] cells can correctly identify whether the compound is a hERG activator or not. The results shown in FIG. 1 indicate that indeed mallotoxin is a hERG activator; and the activation of hERG can result in detectable biosensor responses in the two hERG expressing cell lines.

[2] = test system: hERG channel or hERG-associated signaling complex; assay: Classification of hERG modulators by label-free biosensor profiles across three cell lines plus mallotoxin modulation index; type: cell-based, human
Description: The traditional hERG ion channel assay involves assaying ion flux such as Rb^+ flux using ion absorption assays, or assaying hERG currents directly using patch clamping methods. Traditionally, a molecule which causes increase in Rb^+ flux and/or hERG currents is referred to a hERG activator, while a molecule which inhibits Rb^+ flux and/or hERG currents is referred to a hERG inhibitor. […] These hERG activators may or may not result in detectable biosensor signals in cells, using label-free biosensor cellular assays. A hERG activator that results in a detectable biosensor signal in a hERG expressing cell via hERG or hERG signaling complex is also referred to a label-free biosensor hERG activator.
Disclosed are methods of classifying a molecule for modulating hERG activity, comprising the steps: a. incubating a molecule individually with at least three different types of cells consisting of a native cell endogenously expressing hERG, an engineered cell stably expressing hERG and its parental cell without expressing hERG, and b. monitoring the molecule induced cellular response on each cell type with a label-free biosensor cellular assay,
Also disclosed are methods, further comprising as steps c) incubating a label-free biosensor hERG activator with each cell type in the presence of the molecule, d. monitoring the label-free biosensor hERG activator induced cellular response on each cell type in the presence of the molecule, e. generating a biosensor modulation index of the molecule against the label-free biosensor hERG activator induced biosensor signals in the two hERG expressing cell types.
as §5

[3] = molecular target: T1, hERG channel (Homo sapiens, UniProt Q12809); assay: Rb+ flux assay using HEK-hERG cells; details: for effect on hERG ion flux (Rb+ flux, FIG. 6): HEK-hERG cells, overall statement, KCl and concentration not specified
T1 sequence (Q12809 whole entry): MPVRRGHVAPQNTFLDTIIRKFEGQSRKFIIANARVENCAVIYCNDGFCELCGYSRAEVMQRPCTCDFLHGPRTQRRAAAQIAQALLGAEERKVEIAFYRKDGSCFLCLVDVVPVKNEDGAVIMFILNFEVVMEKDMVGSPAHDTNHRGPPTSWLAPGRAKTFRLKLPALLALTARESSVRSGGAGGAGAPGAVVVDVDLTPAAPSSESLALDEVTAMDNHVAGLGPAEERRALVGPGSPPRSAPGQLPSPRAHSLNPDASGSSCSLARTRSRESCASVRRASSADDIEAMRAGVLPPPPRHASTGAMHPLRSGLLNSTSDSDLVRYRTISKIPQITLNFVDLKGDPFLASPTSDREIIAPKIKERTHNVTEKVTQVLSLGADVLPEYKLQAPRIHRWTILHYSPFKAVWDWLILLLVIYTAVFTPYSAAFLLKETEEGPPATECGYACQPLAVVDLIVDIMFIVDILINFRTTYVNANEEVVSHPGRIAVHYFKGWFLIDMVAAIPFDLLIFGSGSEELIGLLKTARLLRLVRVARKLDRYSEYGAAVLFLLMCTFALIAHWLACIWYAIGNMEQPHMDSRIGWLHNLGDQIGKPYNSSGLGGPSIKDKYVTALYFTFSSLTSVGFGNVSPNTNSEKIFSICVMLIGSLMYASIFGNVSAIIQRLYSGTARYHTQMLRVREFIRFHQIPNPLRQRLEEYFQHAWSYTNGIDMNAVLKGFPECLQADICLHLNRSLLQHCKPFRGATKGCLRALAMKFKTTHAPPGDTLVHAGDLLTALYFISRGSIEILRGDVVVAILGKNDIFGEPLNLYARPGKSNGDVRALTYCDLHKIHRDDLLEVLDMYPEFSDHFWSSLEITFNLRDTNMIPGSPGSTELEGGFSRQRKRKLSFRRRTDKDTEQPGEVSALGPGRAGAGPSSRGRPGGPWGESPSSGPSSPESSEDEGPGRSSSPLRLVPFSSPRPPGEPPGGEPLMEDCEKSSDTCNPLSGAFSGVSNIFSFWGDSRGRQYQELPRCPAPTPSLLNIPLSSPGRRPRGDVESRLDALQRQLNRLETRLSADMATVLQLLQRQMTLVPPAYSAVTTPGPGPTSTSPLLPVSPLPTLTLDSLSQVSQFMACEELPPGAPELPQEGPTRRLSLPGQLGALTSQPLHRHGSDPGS
Method: Briefly, 50,000 cells per well were plated in 96-well tissue culture treated plates 20 hours before assay. In the next day, cells were incubated with complete cell culture medium containing 5 mM RbCl for 3 hours at 37° C. with 5% CO2. Then compounds (10×) diluted in HBSS were added into the cell culture medium and cells were incubated at 37° C. with 5% CO2 for another hour. Cells were washed twice with Rb^+ free cell culture medium and incubated with 180 μl/well of cell culture medium containing different concentration of KCl for exactly 10 minutes. The supernatant from each well was transferred to a new 96 well plate immediately. Cells were lysed with 180 μl/well 0.5% Triton-100 in HBSS. The Rb^+ concentration of each sample was determined by ICR8000 (Aurora Biomed Inc.).

[4] = test system: HEK-hERG cells; assay: Label-free RWG biosensor (Epic) DMR assay, agonism mode, HEK-hERG cells stably expressing hERG; type: cell-based, human
Method: as §2, §3, §4
(§6) Three different types of cells: human colon cancerous cell line HT-29, HEK293 and its engineered HEK-hERG cell lines were used. HT-29 is known to endogenously express hERG channels. HEK293 is a native cell line without endogenously expressed hERG channels, while HEK-hERG is an engineered HEK293 cells having stably expressed hERG channels. Mallotoxin, a newly discovered hERG activator, was used to activate hERG channels at or near physiological conditions (i.e., 1×HBSS buffered conditions).

[5] = test system: mallotoxin DMR signal in HEK-hERG cells; type: cell-based, human
Description: as §1, §2, §3, §4, §5

[6] = test system: HEK293 cells; assay: Label-free RWG biosensor (Epic) DMR assay, agonism mode, native HEK293 cells without hERG; type: cell-based, human
Method: as §2, §3
All studies were carried out at a controlled temperature (28° C.). At least two independent sets of experiments, each with at least three replicates, were performed. […] All dose-dependent responses were analyzed using non-linear regression method with the GraphPad Prism 5. […]

[7] = test system: HT29 cells; assay: Label-free RWG biosensor (Epic) DMR assay, agonism mode, HT29 cells endogenously expressing hERG; type: cell-based, human
Method: as §2, §3, §4, §6

[8] = test system: PKC; assay: Effect on PKC activity (data not shown)
[9] = molecular target: T1, hERG channel; assay: Automated patch clamp recording of hERG current using IonWorks, CHO-hERG cells
Method: CHO—K1 cells stably expressing hERG channel (CHO-hERG) were cultured in T175 flask till about 70% confluent. Cells were washed twice with PBS, then 2.5 ml 0.25% Trypsin/EDTA was mixed with 2.5 ml PBS and added to the T175 flask. Cells were incubated about 2 minutes with the diluted Trypsin/EDTA solution at 37° C., then were continuously incubated about 3 minutes at room temperature. 20 ml fresh medium were added to suspend the cells and transfer to a 50 ml tube. Cells were centrifuged down at 750 rpm for 5 minutes. The extra medium was removed and cells were resuspended in 6 ml External Buffer (137 mM NaCl, 4 mM KCl, 1.8 mM CaCl2, 1 mM MgCl2, 10 mM HEPES, 10 mM glucose, pH 7.4). Then cells were centrifuged again at 450 rpm for another 5 minutes. Finally cells were resuspended in 4 ml the External Buffer, cell number was counted using a hemacytometer. Cell suspension was diluted to 2.5×10^6 cells/ml with the External Buffer. 4 ml of the resuspended cells were added to the cell reservoir in IonWorks. The Internal solution used contains: 40 mM KCl, 100 mM K-Gluconate, 3.2 mM MgCl2, 2 mM CaCl2, 5 mM HEPES, pH 7.25 (adjusted with KOH). 5 mg Amphotericin B from 200 ul DMSO stock was added to 65 ml the Internal solution and mixed well to achieve electrical access to the interior of cells on the patch plate.
Compounds were prepared from 10 mM DMSO stock and diluted in the External Buffer to make 3× compound solution. […] of the 3× compound solution was transferred to a 384 well plate in Row A, B, C and D. PD11857 (Sigma-Aldrich), a reported hERG channel activator was used as activator positive control (final concentration 30 and 50 μM). hERG blocker dofetilide was used as blocker positive control (final concentration 100 nM). The final DMSO concentration in the IonWorks Quattro PatchPlate PPC plate (Cat#9000-0902, Molecular Devices) was 0.5%. Final compound concentration was 50 μM. Each compound was added to four wells of one PPC plate.
hERG currents were recorded on IonWorks Quattro (Molecular Devices). To record hERG current, the cells were clamped at −80 mV initially, then followed by a 5-s depolarization at +40 mV to activate the channels. Tail currents were measured during an ensuing return to −35 mV. Data analysis were done using IonWorks Quttro® System Software version 2.0.4.4. Data from wells with seal resistance less than 50 MΩ or hERG tail currents less than 0.1 nA were filtered out. […] Inhibitor hits were selected if hERG tail currents ratio (post/pre-compound) is less than mean-2SD of the average DMSO control.
To record hERG current, the cells were clamped at −80 mV initially, then followed by a 5-s depolarization at +40 mV to activate the channels (phase a in FIG. 10A). Tail currents were measured during an ensuing return to −35 mV for 2 seconds (phase b in FIG. 10A). Final holding potential at −70 mV (phase c in FIG. 10B).

[10] = test system: phosphodiesterase 4; assay: Effect on phosphodiesterase 4 activity (data not shown)
[11] = compound at 10 micromolar, mallotoxin 16 micromolar
[12] = 16 μM mallotoxin, blockers dose-dependent (30 μM, 30 min pretreatment in FIG. 8A)

Compound: N#CC(C#N)=Cc1ccc([N+](=O)[O-])c(O)c1 [AG-126]
- modulation of the mallotoxin DMR signal in HT29 cells [1, 11]: only partially attenuated
- hERG pathway activity class by label-free biosensor [2]: hERG pathway activator, specifically in the endogenous hERG channel complex in HT29
- effect on hERG ion flux (Rb+ flux, FIG. 6) [3]: little or no impact; also recorded: non-effector in hERG ion flux

Compound: O=C(Nc1cc(C(F)(F)F)ccc1O)Nc1cc(C(F)(F)F)ccc1O [NS1643]
- DMR signal in HEK-hERG cells ([4]; concentration not given, data not shown): induced a detectable DMR signal

Compound: COc1cc(N)c(Cl)cc1C(=O)NC1CCN(CCCOc2ccc(F)cc2)CC1OC (stereo not shown) [cisapride]
- effect of pretreatment on the mallotoxin DMR signal in HEK-hERG cells [5]: dose-dependent suppression

Compound: O=C(O)c1cc(-c2ccc(F)cc2F)ccc1O [diflunisal]
- modulation of the mallotoxin DMR signal in HT29 cells [1, 11]: completely desensitized
- score of modulation index in coordination, HEK-hERG coordinate ([5]; human): 1
- hERG pathway activity class by label-free biosensor [2]: hERG pathway activator
- Rb+ signal in HEK-hERG cells ([3]; 5 mM KCl, compound at 10 or 50 μM): only at 50 μM triggered a detectable increase
- effect on hERG ion flux (Rb+ flux, FIG. 6) [3]: weak hERG ion flux activator

Compound: O=C(O)c1cccnc1Nc1cccc(C(F)(F)F)c1 [niflumic acid]
- hERG pathway activity class by label-free biosensor [2]: hERG pathway activator

Compound: CC(C)(O)[C@H]1O[C@H]2CC[C@@]3(C)[C@@](O)(CC[C@H]4Cc5c([nH]c6ccccc56)[C@@]43C)C2=CC1=O [paxilline]
- effect of pretreatment on the mallotoxin DMR signal in HEK-hERG cells [5, 12]: no effect

Compound: C=C(C)[C@H]1O[C@H]2CC[C@@]3(C)[C@@](O)(CC[C@H]4[C@@H]5OC(C)(C)[C@H]6C[C@@H]7C(=C)Cc8c(Cl)cc9[nH]c(c5c9c8[C@@]76O)[C@@]43C)[C@@]23O[C@H]3[C@H]1O [penitrem A]
- effect of pretreatment on the mallotoxin DMR signal in HEK-hERG cells [5, 12]: no effect

Compound: O=C1NCCN1CCN1CCC(c2cn(-c3ccc(F)cc3)c3ccc(Cl)cc23)CC1 [sertindole]
- modulation of the mallotoxin DMR signal in HT29 cells ([1]; dose dependent, concentrations not given): attenuated
- DMR signal in HEK-hERG cells [4]: did not trigger any DMR signals
- DMR signal in HEK293 cells [6]: did not trigger any DMR signals
- DMR signal in HT29 cells [7]: did not trigger any DMR signals

Compound: N#CC(C#N)=C(N)/C(C#N)=C/c1cc(O)c(O)c(O)c1 [tyrphostin 51]
- modulation of the mallotoxin DMR signal in HT29 cells [1, 11]: only partially attenuated
- effect on activity of PKC [8]: suppresses the activity
- effect on hERG tail current ([9]; 50 μM, tail current at return to −35 mV): significantly suppressed
- effect on hERG current ([9]; final compound concentration 50 μM): hERG current inhibitor
- DMR signal in HEK-hERG cells ([4]; compound at 10 μM): robust but different DMR signals
- hERG pathway activity class by label-free biosensor [2]: hERG pathway activator
- effect on hERG ion flux (Rb+ flux, FIG. 6) [3]: little impact; also recorded: weak hERG ion flux activator
- effect on activity of phosphodiesterase 4 [10]: suppresses the activity
